# From patent US8367620B2, “Peptidic growth hormone secretagogues analog compounds and preparations thereof” (Centro de Ingenieria Genetica y Biotecnologia, priority 2006, dated 2013)
# Read-outs that look alike come from different tables or passages of the source. Where a SMILES comes first, the peptide text is derived from it. Bridges are numbered along the chain shown (N, C = ends).
# How the values were obtained:
# [1] = system: tilapia Oreochromis sp. larvae; test: Growth stimulation of tilapia larvae by immersion; type: in vivo; conditions: immersion 100 μg/L, one hour twice a week, three weeks
# Method: (§1) Growth stimulation experiments on tilapia Oreochromis sp. larvae were performed evaluating groups of 100 larvae with 0.01 g average, using the peptidic GHS analogs, in a 100 μg/L concentration, twice a week using an immersion time of one hour.
# PC12 cells = type: cell-based
# Method: PC12 cells were stored in 75 cm^2 culture flasks on DMEM containing 5% bovine foetal serum and 10% horse serum, with 50 μg/ml gentamicin. Cells were incubated at 37° C. in 5% CO2. To induce differentiation cells were transferred at a density of 1×10^4 to polylysine covered 96 well plates in NGF supplemented DMEM media for 7 days, with medium replacement every 2-3 days. After differentiation cells were incubated with peptidic GHS analog compounds, at different concentrations for 72 h. Cell survival and proliferation was determined using the Promega non-radioactive cytotoxicity proliferation assay, Cell Titer 96, based in the conversion of 3-(4,5-dimethylthiazole-2-yl)-2,5-diphenyltetrazolium bromide (MTT) in to a spectrophotometrically detectable product. After deprivation of NGF medium is removed and 15 μl of the DMEM dissolved dye is added, after 4 hours of 37° C. incubation 100 μl of the stopping solution is added and absorbance is measured at 570 nm
# [2] = system: primary cultures of granular cerebellum cells; type: cell-based, Wistar rats
# Method: Primary cultures of granular cerebellum cells were obtained from 7-9 days Wistar rats. After a rapid dissection, rat cerebellums were submerged in a cold solution and meningeal membranes were removed, each organ was transferred to a 2-3 ml fresh medium solution and finely sliced. Cells were dissociated using a Pasteur pipette and filtered through a nylon […] membrane (Falcon, Franklin Lakes, N.J.). The number of viable cells was determined by cell counting in a hematocytometer with tripan blue as a marker. Cells were cultured on polylysine covered 96 well plates at a density of 6250 cells in […] final volume. Cultures were kept at 37° C. in 5%. CO2 after 24 h, 10 μM of cytosine arabinofuranose (AraC; Sigma) was added to inhibit the proliferation of non-neuronal cells. The capacity of neural damage prevention was tested adding 500 μM hydrogen peroxide in different concentrations of peptidic GHS analog compounds, Cell survival was determined using the Promega non-radioactive cytotoxicity proliferation assay, Cell Titer 96 (Promega).
# [3] = system: Litopenaeus vanamei post-larvae; test: Growth of shrimp post-larvae fed Artemia-bioencapsulated compounds; type: in vivo; conditions: Artemia bioencapsulated (10 mh/L, one hour), fed four times a day for one month
# Method: The peptidic GHS analogs were bioencapsulated in Artemia to be fed to Litopenaeus vanamei post-larvae. For the encapsulation the compounds were added in a 10 mh/L left for an hour, harvested and washed. The animals were fed four times a day for one month while the control group was fed with BSA encapsulated Artemia The effect was measured with an optical micrometer and weighing the animals in a 0.1 mg precision scale.
# IGF-I mRNA = IGF-I mRNA in liver and GH level of intraperitoneally injected tilapias; type: in vivo, tilapia; conditions: liver of intraperitoneally injected tilapias
# Method: IGF-I mRNa was determined in the liver of intraperitoneally injected tilapias monitoring also the GH level time course, showing the peptidic GHS analog compounds as able to stimulate in fish the GH levels in the bloodstream and at incrementing the IGF-I mRNA levels after the injection of the compounds as shown in table 4.
# [4] = system: Doxorubicin induced Dilated Cardiomyopathy; test: Prevention of Doxorubicin induced myocardial failure in rats (VEF, forced swimming); type: in vivo, Wistar rats; conditions: for ventricular ejection fraction (VEF) with respect to the healthy control: rats, Dx 2 mg/kg 8 weeks plus compound ip 500 μg/Kg, placebo VEF drop about 40%; for survival after forced swimming: Dx treated rats, compound ip 500 μg/Kg, 4° C. water 30 minutes, Dx-saline 45%
# Method: To reproduce the physiopathogenic effects of a Dilated Cardiomyopathy (DCM) female Wistar rats of 160 g were treated with 2 mg/kg Doxorubicin (Dx) during 8 weeks. A group of this rats was also treated in parallel with compounds A221, A228 or A233 intraperitoneally at 500 μg/Kg during the 8 weeks of Dx treatment, another Dx treated group was also receiving saline solution as a placebo, and as a healthy control for the experiment another group of untreated Wistar rats of the same age was used. After the 8 week treatment all the rats were tested with an echocardiogram, to test the ventricular functionality and assess the ventricular ejection fraction (VEF).
# [5] = system: Doxorubicin induced Dilated Cardiomyopathy; test: Reversion of Doxorubicin induced dilated cardiomyopathy in rats, dose-response; type: in vivo, Wistar rats; conditions: rats with Dx induced DCM; for mortality in the group respect to placebo or lower concentrations / total VEF recovery: 50 μg/kg; for DCM reversion two weeks after the treatment: 50 μg/kg to 500 μg/kg; for DCM reversion at 4 weeks of treatment: 100 to 500 μg/kg; for VEF recovery at lower concentrations: doses lower than 50 μg/kg
# Method: To assess if there is any dose-response effect and reversion of DCM, Wistar rats were subjected to a treatment with 2 mg/kg of Doxorubicin (Dx) for 8 weeks, after the treatment all rats with a VEF drop higher than 40% were selected, divided in groups of n=8 and treated with different doses of compounds A221, A228 or A233 as follows: • 500 μg/kg, • 250 μg/kg, • 100 μg/kg, • 50 μg/kg, • 25 μg/kg, • 10 μg/kg • Saline Solution.
# (FIG. 4, a A221, b A228 and c A233).
# [6] = system: Post-larvae of Litopenaeus vanamei; test: Growth stimulation in shrimps by dietary supplementation; type: in vivo; conditions: compound at 1% in post-larvae crustacean diet
# Method: The peptidic GHS analogs were included at 1% in a post-larvae crustacean diet. Post-larvae of Litopenaeus vanamei were fed with the aforementioned diet in parallel with a control group with 1% BSA addition. The effect was measured with an optical micrometer and weighing the animals in a 0.1 mg precision scale.
# Litopenaeus vanamei [7] = test: Growing of shrimp larvae by dipping in solution of the compounds; type: in vivo; conditions: four dips of one hour every three days, 0.1 g/L
# Method: (§2) Shrimp larvae were subjected two four dips, for one hour every three days with different peptidic GHS analogs at 0.1 g/L. The control group was subjected to the same frequency of dipping with 1 mg/L BSA.
# tilapias = test: Growth acceleration on juvenile tilapias treated intraperitoneally; type: in vivo; conditions: juvenile tilapia, ip 0.1 μg/g twice a week, three weeks
# Method: The compounds were dissolved in a sodium phosphate (PBS) buffer solution and injected twice a week, during three weeks at 0.1 μg/g of humid fish weight (gbw). Compounds were applied individually to a group of 10 male tilapias with an average weight of 60.41±10.36 g and a control group with an average weight of 60.58±19.67 g was receiving PBS only as a control, measuring the average weight every week, all animals in the experiment were labelled with microchips (Stoelting Co. Wood Dale, USA.). for proper identification.
# Litopenaeus vanamei [8] = test: Shrimp dipping experiment in production conditions; type: in vivo
# Method: as §2
# This experiment was also performed in production conditions for compounds A221, A228 y A233, with a 20% of higher survival compared with the controls, keeping a stimulation of 110% on the weight and 30% in the size, showing on the treated animals a better homogeneity on the size distribution with only a 30% and a 8% of variation coefficient in weight and size respectively, on contras with a 77% and 30% in the non treated group.
# lysozyme = test: Lysozyme levels in tilapia larvae treated by immersion; type: in vivo, Oreochromis sp.; conditions: immersion 100 μg/L
# Method: as §1
# During this experiment lysozyme levels were also monitored and an increase of this immunity marker was obtained in the treated animals as shown in table 8.
# [9] = differentiated PC12 cells, 72 h incubation, MTT, read-out: IC50 during the NGF deprivation induced neuronal death
# [10] = 500 μM hydrogen peroxide, rat cerebellum granular cells, read-out: IC50 during the induced neuronal damage by Hydrogen Peroxide addition to a primary culture of neurons
Molecule,"Weight Inc. (%), control group growing = 100% [1] [%]","Size Inc. (%), control group growing = 100% [3] [%]",Normalized IGF-I mRNA levels to a non related synthetic peptide control group (IGF-I mRNA),ventricular ejection fraction (VEF) with respect to the healthy control [4],mortality in the group respect to placebo or lower concentrations [5],total VEF recovery [5],DCM reversion two weeks after the treatment [5],DCM reversion at 4 weeks of treatment [5],VEF recovery at lower concentrations [5],"Size Inc. (%), control group growing = 100% [6] [%]","Size Inc. (%), control group growing = 100% (Litopenaeus vanamei [7]) [%]","Weight Inc. (%), control group growing = 100% (Litopenaeus vanamei [7]) [%]","Weight Inc. (%), control group growing = 100% (tilapias) [%]",higher survival compared with the controls (Litopenaeus vanamei [8]) [%],stimulation in the size (Litopenaeus vanamei [8]) [%],stimulation on the weight (Litopenaeus vanamei [8]) [%],Lysozyme levels of the treated animals relative to the control group (lysozyme),IC50 (PC12 cells; [9]) [nM],"IC50 [2, 10] [nM]",survival after forced swimming [4] [%],further results
"NCC(=O)N[C@@H](CO)C(=O)N[C@H]1CCCCNC(=O)C[C@@H](C(=O)N[C@@H](CO)C(=O)N2CCC[C@H]2C(=O)N[C@@H](CCC(=O)O)C(=O)N[C@@H](Cc2c[nH]cn2)C(=O)N[C@@H](CCC(N)=O)C(=O)O)NC(=O)[C@H](Cc2ccccc2)NC1=O [Compound A221, GSKFDSPEHQ] (H-GSKFDSPEHQ-OH; lactam 3-5; N-terminus and C-terminus assumed)",97.0,130.2,1.32,slightly modified VEF,somehow effective to reduce mortality,not effective for the total VEF recovery,partially reverts DCM,DCM reversion is complete,do not recovered VEF,130.0,112.0,120.1,98.0,20,30,110,1.01,,,,IC50 (PC12 cells; 72 h): 2020 nM; IC50 [2]: 1800 nM
"GKFDLSPEHQ [Compound A233, L-amino acid peptide with internal side-chain cycle, SEC; ID NO: 13]",155.0,140.0,1.69,slightly modified VEF,somehow effective to reduce mortality,not effective for the total VEF recovery,partially reverts DCM,DCM reversion is complete,do not recovered VEF,140.1,124.9,143.0,165.0,20,30,110,2.68,5000,3560,100,
"GKFGDLSPEHQ [Compound A228, L-amino acid peptide with internal side-chain cycle, SEC; ID NO: 8]",132.0,140.0,1.18,slightly modified VEF,somehow effective to reduce mortality,not effective for the total VEF recovery,partially reverts DCM,DCM reversion is complete,do not recovered VEF,140.0,118.9,128.2,130.6,20,30,110,1.08,3990,1770,100,
